Assay results: patent US20240108632A1, “PHARMACEUTICAL COMPOSITION FOR ADMINISTRATION AS OPHTHALMIC DROP TO PATIENT REQUIRING OPTIC NERVE PROTECTION” (PINOTBIO, INC., priority 2020, published 2024)
Converted amounts (≈) assume the structure as drawn.

How the values were obtained:
[1] = Solubility as a function of HP-β-CD concentration, without pH adjustment (purified water); assay type: physicochemical; conditions: no pH adjustment
Procedure: Various concentrations of HP-β-CD aqueous solutions were prepared by adding appropriate amounts of HP-β-CD at 0.5%, 1%, 2%, 3%, 4%, and 5% (w/v) in tertiary purified water. An excess of KR-67607 was added to the above HP-β-CD solution and stirred for 24 hours, then the supernatant was collected, filtered through a 0.2 μm PVDF filter, and 1 mL was added to a 10 mL volumetric flask and labeled with methanol.
The standard was 50 mg of KR-67607 accurately weighed and placed in a 50 mL volumetric flask and completely dissolved/stained with methanol. 1, 2, 4, 6, 8, 10 mL of the standard was accurately taken and placed in a 20 mL volumetric flask, and the one labeled with methanol was used as the standard.
The UV analysis conditions are as follows • Wavelength: 255 nm • Cell: 10 mm Quartz cell
KR-67607 concentration (μg/mL)=(UV absorbance of the sample−y-intercept of the standard curve)/(slope of the standard curve)×dilution factor of the sample. [Formula]

[2] = Solubility by HP-β-CD concentration at pH adjustment; assay type: physicochemical
Procedure: Various concentrations of HP-β-CD aqueous solutions were prepared by adding 1%, 2%, 3%, and 4% (w/v) of HP-β-CD to tertiary purified water (pH 5.5), pH 7.4 phosphate buffer, and 0.04 M NaOH aqueous solution (pH 12.5). An excess of KR-67607 was added to the above HP-β-CD solution and stirred for 24 hours, then the supernatant was collected and filtered through a 0.2 μm PVDF filter, and 1 mL was added to a 10 mL volumetric flask and labeled with methanol.
For the standard solution, 50 mg of KR-67607 was accurately weighed and placed in a 50 mL volumetric flask and completely dissolved/stained with methanol. 1, 2, 4, 6, 8, 10 mL of the standard solution was accurately taken and placed in a 20 mL volumetric flask, and the one labeled with methanol was used as the standard.

DBA/2 mice [3] = assay: Intraocular pressure in ocular hypertensive glaucoma mouse model; assay type: in vivo; conditions: for IOP reduced compared to control group: week 16, 20 μl both eyes twice daily
Procedure: In this study, we evaluated the efficacy of KR-67607 in a mouse model of glaucoma using DBA/2 mice, which are congenitally predisposed to persistently elevated intraocular pressure (FIG. 9).
IOP was measured after the acclimatization period and then every 4 weeks. IOP was measured in respiratory anesthetized mice according to the manufacturer's instructions and the mean value presented after six measurements was recorded.

[4] = system: cynomolgus macaque model of glaucoma; assay: Intraocular pressure in cynomolgus macaque model of glaucoma (laser trabeculoplasty); assay type: in vivo; conditions: for maximum decrease of IOP, glaucomatous eye: 2 hours after instillation
Procedure: (§1) Three weeks before the first laser trabeculoplasty, IOP was measured via a tomometer (SPHPR-320-61), once per week for three weeks. The first laser trabeculoplasty was performed in one eye for each macaque. Two weeks later, laser trabeculoplasty was repeated in the same eye (Week 0).
(§2) One week after the second laser trabeculoplasty (Week 1), IOP was measured and retinal nerve fiber layer (RNFL) thickness was measured via optical coherence tomography (OCT; RS3000 Advance, Nidek Co. Ltd., Gamagoori, Japan) (SPHPR- 320-58). The day after group assignment, the eyes were instilled with either vehicle, KR-67607 or brimonidine twice a day. On Day 1, the effect of treatment on IOP over time was measured before treatment and 1, 2, 4, and 8 hrs. after instillation. At the same time, blood samples were obtained. From the effects of dosing observed on Day 1, it was determined that 2 hrs. was a reasonable time time-to-test following instillation for subsequent observations.
(§3) Intraocular pressures were obtained at Weeks 2, 3, 4, 5, 7 and 9. Optical coherence tomography and color fundus photography (CFP) were performed at Weeks 1, 3, 5, 7, and 9 (SPHPR-320-56).
Following measurements at Week 9, G3 macaques was randomized into two groups based on IOP, and the effect of KR-67607 (1.5 mg/mL, 3.0 mg/mL) on IOP was evaluated.

[5] = system: cynomolgus macaque model of glaucoma; assay: Retinal nerve fiber layer thickness by OCT in cynomolgus macaque model of glaucoma; assay type: in vivo
Procedure: as §1, §2, §3

11β-HSD1 = 11β-HSD1 (Homo sapiens, UniProt P28845); conditions: known; cited from earlier work
DBA/2 mice [6] = assay: Histology and immunostaining of retina and optic nerve head in glaucoma mouse model; conditions: after 16 weeks of drug treatment
Procedure: After drug administration was terminated, the mice's eyes were enucleated and tissues were analyzed (FIGS. 14 to 26).
The optic nerve papilla area was analyzed by H&E staining, Caspase-3, 9, and TUNEL staining in retinal tissue removed and fixed from eyes of mice after 16 weeks of drug treatment. […] To determine the degree of cell death in the damaged optic nerve papilla tissue, Caspase-3, 9 staining (FIGS. 15 and 16), an indicator of early apoptosis, and TUNEL staining (FIG. 17), an indicator of late apoptosis, were performed.

Chain of 11β-HSD1 (P28845 whole entry, species assumed): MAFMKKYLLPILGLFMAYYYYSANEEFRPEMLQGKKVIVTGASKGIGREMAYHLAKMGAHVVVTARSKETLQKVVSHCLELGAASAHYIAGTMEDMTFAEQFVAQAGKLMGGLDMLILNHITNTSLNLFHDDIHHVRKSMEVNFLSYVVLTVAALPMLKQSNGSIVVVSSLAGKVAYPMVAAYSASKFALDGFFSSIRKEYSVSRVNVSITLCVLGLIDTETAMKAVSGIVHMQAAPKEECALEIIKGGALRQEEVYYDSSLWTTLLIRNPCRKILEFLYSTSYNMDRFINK

CC1CN(CC(=O)NC2C3CC4CC2CC(C(N)=O)(C4)C3)S(=O)(=O)N(c2c(Cl)cc(C(F)(F)F)cc2Cl)C1 [KR-67607, (1s, 3R,4s,5S,7s)-4-(2-(6-(2,6-dichloro-4-(trifluoromethyl)phenyl)-4-methyl-1,1-dioxido-1,2,6-thiadiazinan-2-yl)acetamido)adamantane-1-carboxamide]
the solubility of KR-67607 ([1]; HP-β-CD 0.5 % w/v in purified water): 1200 µg/mL
the solubility of KR-67607 ([1]; HP-β-CD 1.0 % w/v in purified water): 2550 µg/mL
the solubility of KR-67607 ([1]; HP-β-CD 2.0 % w/v in purified water): 4230 µg/mL
the solubility of KR-67607 ([1]; HP-β-CD 3.0 % w/v in purified water): 6000 µg/mL
the solubility of KR-67607 ([1]; HP-β-CD 4.0 % w/v in purified water): 6910 µg/mL
the solubility of KR-67607 ([1]; HP-β-CD 5.0 % w/v in purified water): 7250 µg/mL
Solubility by HP-β-CD concentration ([2]; HP-β-CD 1.0 % w/v, 0.04M NaOH aqueous solution (pH 12.5)): 3160 µg/mL (≈ 5.29 mM)
Solubility by HP-β-CD concentration ([2]; HP-β-CD 1.0 % w/v, phosphate buffer (pH 7.4)): 2590 µg/mL (≈ 4.33 mM)
Solubility by HP-β-CD concentration ([2]; HP-β-CD 1.0 % w/v, purified water (pH 5.5)): 2550 µg/mL (≈ 4.27 mM)
Solubility by HP-β-CD concentration ([2]; HP-β-CD 2.0 % w/v, 0.04M NaOH aqueous solution (pH 12.5)): 5720 µg/mL (≈ 9.57 mM)
Solubility by HP-β-CD concentration ([2]; HP-β-CD 2.0 % w/v, phosphate buffer (pH 7.4)): 4290 µg/mL (≈ 7.18 mM)
Solubility by HP-β-CD concentration ([2]; HP-β-CD 2.0 % w/v, purified water (pH 5.5)): 4230 µg/mL (≈ 7.08 mM)
Solubility by HP-β-CD concentration ([2]; HP-β-CD 3.0 % w/v, 0.04M NaOH aqueous solution (pH 12.5)): 7900 µg/mL (≈ 13.2 mM)
Solubility by HP-β-CD concentration ([2]; HP-β-CD 3.0 % w/v, phosphate buffer (pH 7.4)): 6000 µg/mL (≈ 10 mM)
Solubility by HP-β-CD concentration ([2]; HP-β-CD 3.0 % w/v, purified water (pH 5.5)): 6000 µg/mL (≈ 10 mM)
Solubility by HP-β-CD concentration ([2]; HP-β-CD 4.0 % w/v, 0.04M NaOH aqueous solution (pH 12.5)): 9610 µg/mL (≈ 16.1 mM)
Solubility by HP-β-CD concentration ([2]; HP-β-CD 4.0 % w/v, phosphate buffer (pH 7.4)): 6790 µg/mL (≈ 11.4 mM)
Solubility by HP-β-CD concentration ([2]; HP-β-CD 4.0 % w/v, purified water (pH 5.5)): 6910 µg/mL (≈ 11.6 mM)
week from which significant IOP reduction was seen (DBA/2 mice [3]; high dose KR-67607 (1.5 mg/ml)): 4 week
week from which IOP-lowering effects were observed (DBA/2 mice [3]; low-dose KR-67607 (0.75 mg/ml)): 12 week
IOP reduced compared to control group (DBA/2 mice [3]; high-dose KR-67607 (1.5 mg/ml)): 26%
IOP reduced compared to control group (DBA/2 mice [3]; low concentration KR-67607 (0.75 mg/ml)): 16%
maximum decrease of IOP, contralateral normal eye ([4]; Day 1 dosing, 2 hours after dosing): did not decrease
maximum decrease of IOP, glaucomatous eye ([4]; Day 1 dosing): 9.2±4.1 mmHg
effect on IOP (Extra dosing) ([4]; KR-67607 1.5 mg/mL, after Week 9): did not affect
maximum decrease of IOP (Extra dosing) ([4]; KR-67607 3.0 mg/mL, 1 hour after instillation): 12.0±2.8 mmHg
effect on trough IOP value ([4]; glaucomatous eyes, repeated treatment twice a day, brimonidine tartrate 0.1%, KR-67607 1.5 mg/mL): did not significantly affect
maximum decrease of IOP, normal eye ([4]; over weeks): did not decrease
maximum decrease of IOP, glaucomatous eye ([4]; over weeks): 10.4±2.2 mmHg
IOP-decreasing effect in glaucomatous eyes relative to brimonidine ([4]; summary): smaller than that of brimonidine
RNFL thickness compared with vehicle treatment ([5]; 5 weeks, unpaired t-test, p<0.05): greater
number of eyes with RNFL thickness greater than 50% compared to baseline ([5]; Week 9, 6 eyes per group): 3
RNFL thinning in glaucomatous eyes ([5]; repeated treatment, compared to vehicle-treated (G1)): significantly inhibited
inhibitory effect on RNFL thinning relative to brimonidine ([5]; summary): greater than that of brimonidine
inhibitory activity against 11β-HSD1 (11β-HSD1): good inhibitory activity
Brn3a expression in flat-mounted retinal tissue (DBA/2 mice [6]): relatively increased
GABAergic amacrine cells (DBA/2 mice [6]): relatively increased
GFAP expression (activated astrocytes) in optic nerve (DBA/2 mice [6]): less concentrated
GLT-1 expression in retina (DBA/2 mice [6]): no quantitative or qualitative difference
degree of retinal ganglion cell death (caspase-3 and 9) (DBA/2 mice [6]): relatively reduced
glaucomatous histologic features of optic nerve papilla (H&E: cupping, nerve fiber layer thinning) (DBA/2 mice [6]): alleviated
loss of retinal ganglion cells (H&E) (DBA/2 mice [6]): less loss
number of Iba-1 positive microglia (DBA/2 mice [6]): decreased
number of caspase-3, 9 expressing and TUNEL-positive cells in optic nerve papillae (DBA/2 mice [6]): significantly reduced
